Assay results taken from ChEMBL document CHEMBL4507261, “Data for DCP probe A-192621” (2021).

Tests used:
Conditions in all cases: Compound concentration 10.0 uM
[1] = molecular target: T1, Muscarinic acetylcholine receptor M2 (Homo sapiens) (UniProt P08172)
T1 sequence (whole entry): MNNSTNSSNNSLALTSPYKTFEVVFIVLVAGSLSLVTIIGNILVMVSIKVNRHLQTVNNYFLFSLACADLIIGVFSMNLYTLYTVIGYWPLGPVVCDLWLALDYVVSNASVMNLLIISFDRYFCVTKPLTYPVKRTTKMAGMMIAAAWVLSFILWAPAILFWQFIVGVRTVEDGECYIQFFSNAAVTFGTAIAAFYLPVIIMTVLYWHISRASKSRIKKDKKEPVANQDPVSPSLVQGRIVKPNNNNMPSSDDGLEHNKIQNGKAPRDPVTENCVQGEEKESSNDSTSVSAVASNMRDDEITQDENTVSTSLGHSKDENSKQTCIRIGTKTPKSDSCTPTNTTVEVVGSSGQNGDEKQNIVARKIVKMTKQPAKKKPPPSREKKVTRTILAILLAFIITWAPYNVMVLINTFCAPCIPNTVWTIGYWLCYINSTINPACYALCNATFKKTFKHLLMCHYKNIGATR

[2] = molecular target: T2, Alpha-2B adrenergic receptor (Homo sapiens) (UniProt P18089)
T2 sequence (whole entry): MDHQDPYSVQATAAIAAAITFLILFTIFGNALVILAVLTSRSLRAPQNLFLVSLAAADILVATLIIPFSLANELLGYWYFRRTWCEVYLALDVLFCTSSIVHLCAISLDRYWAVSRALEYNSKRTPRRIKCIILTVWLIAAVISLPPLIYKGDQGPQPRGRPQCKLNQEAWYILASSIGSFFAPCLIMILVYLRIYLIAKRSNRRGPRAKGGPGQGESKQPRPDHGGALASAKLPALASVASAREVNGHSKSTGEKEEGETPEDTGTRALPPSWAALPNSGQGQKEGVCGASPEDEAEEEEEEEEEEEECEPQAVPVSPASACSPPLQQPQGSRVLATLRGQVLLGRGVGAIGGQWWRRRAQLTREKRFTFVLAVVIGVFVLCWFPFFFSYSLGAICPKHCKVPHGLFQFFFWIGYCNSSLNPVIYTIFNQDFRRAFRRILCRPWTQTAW

[3] = molecular target: GABA-A receptor; anion channel (Rattus norvegicus) (UniProt O09028+P15431+P18506+P18508+P19969+P20236+P23574+P23576+P28471+P28473+P30191+P62813+P63079+P63138+Q91ZM7+Q9ES14)
[4] = molecular target: Kappa-type opioid receptor (Homo sapiens) (UniProt P41145)
Kappa-type opioid receptor (Homo sapiens), sequence (P41145 whole entry): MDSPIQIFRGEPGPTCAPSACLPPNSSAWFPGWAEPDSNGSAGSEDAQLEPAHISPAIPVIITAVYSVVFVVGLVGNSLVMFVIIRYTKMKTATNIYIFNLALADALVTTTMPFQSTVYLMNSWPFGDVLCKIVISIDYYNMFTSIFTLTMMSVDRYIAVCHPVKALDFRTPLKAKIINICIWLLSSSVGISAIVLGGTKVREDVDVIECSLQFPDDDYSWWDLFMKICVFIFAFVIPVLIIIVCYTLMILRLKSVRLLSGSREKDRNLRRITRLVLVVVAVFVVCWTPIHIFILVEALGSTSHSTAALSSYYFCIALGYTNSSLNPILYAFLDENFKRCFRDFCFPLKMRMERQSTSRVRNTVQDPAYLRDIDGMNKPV

[5] = molecular target: 5-hydroxytryptamine receptor 2A (Homo sapiens) (UniProt P28223)
5-hydroxytryptamine receptor 2A (Homo sapiens), sequence (P28223 whole entry): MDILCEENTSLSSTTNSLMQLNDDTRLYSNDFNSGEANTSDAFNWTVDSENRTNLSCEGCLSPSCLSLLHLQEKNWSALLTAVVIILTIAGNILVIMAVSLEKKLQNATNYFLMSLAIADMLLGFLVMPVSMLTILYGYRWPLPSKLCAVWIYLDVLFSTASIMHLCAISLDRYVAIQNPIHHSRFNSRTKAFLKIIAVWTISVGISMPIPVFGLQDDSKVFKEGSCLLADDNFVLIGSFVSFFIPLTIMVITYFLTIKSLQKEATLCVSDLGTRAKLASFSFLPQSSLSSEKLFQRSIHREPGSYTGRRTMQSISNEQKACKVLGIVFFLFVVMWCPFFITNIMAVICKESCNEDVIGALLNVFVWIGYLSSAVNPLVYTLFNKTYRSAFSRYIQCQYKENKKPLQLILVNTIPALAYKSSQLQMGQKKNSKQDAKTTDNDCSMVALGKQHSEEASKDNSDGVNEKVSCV

[6] = molecular target: D(1B) dopamine receptor (Homo sapiens) (UniProt P21918)
D(1B) dopamine receptor (Homo sapiens), sequence (P21918 whole entry): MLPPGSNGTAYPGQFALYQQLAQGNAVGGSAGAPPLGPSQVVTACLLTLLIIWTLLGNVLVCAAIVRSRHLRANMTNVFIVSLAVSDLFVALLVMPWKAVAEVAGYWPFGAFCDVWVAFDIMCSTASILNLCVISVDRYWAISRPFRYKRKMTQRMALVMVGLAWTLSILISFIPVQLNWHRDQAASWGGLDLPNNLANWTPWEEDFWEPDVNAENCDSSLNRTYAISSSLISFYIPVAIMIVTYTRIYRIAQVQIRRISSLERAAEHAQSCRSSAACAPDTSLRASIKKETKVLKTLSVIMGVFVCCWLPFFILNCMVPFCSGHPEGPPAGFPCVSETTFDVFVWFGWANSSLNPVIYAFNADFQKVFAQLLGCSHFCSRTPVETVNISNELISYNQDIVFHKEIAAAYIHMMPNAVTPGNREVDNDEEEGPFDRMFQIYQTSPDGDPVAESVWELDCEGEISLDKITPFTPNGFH

Measured: inhibition

CCCOc1ccc([C@H]2[C@H](C(=O)O)[C@@H](c3ccc4c(c3)OCO4)CN2CC(=O)Nc2c(CC)cccc2CC)cc1 [A-192621]
inactive: [1] -5.3% | [2] 10.4% | [3] 5.57% | [4] 35.3% | [5] 4.84% | [6] 11%
